Where two headings read alike, the source gives them in different places.
Key:
[1] = Liver microsome stability experiment (human); assay type: in vitro ADME; settings: for CLint scaled at 1 µM: human, liver microsomes, pH 7.4, Human liver microsomes; for half-life at 1 µM: pH 7.4, Human liver microsomes
Description: This experiment aimed to evaluate the phase I metabolic stability of the compounds of the present disclosure in liver microsomes of SD rats, beagle dogs, cynomolgus monkeys, and humans.
• (1) Buffer preparation: 73.21 g of dipotassium hydrogen phosphate trihydrate and 10.78 g of potassium dihydrogen phosphate were dissolved in 4000 mL of ultrapure water. The pH of the solution was adjusted to within 7.40 ± 0.10 using 10% phosphoric acid or 1 M potassium hydroxide, resulting in a final concentration of 100 mM. • (2) Solution preparation and dilution: Stock solutions of the test compounds at a concentration of 10 mM were prepared in dimethyl sulfoxide (DMSO) and stored at 4 °C, and they were diluted into 100 µM working solutions with pure acetonitrile when used. A stock solution of the control compound testosterone at a concentration of 10 mM was prepared in DMSO and stored at -20 °C, and it was diluted into a 400 µM working solution with pure acetonitrile when used. • (3) Termination solution preparation: The termination solution was an acetonitrile solution containing an internal standard (terfenadine). The prepared termination solution was stored in a refrigerator at 2-8 °C. • (4) Liver microsome solution preparation: Liver microsomes from various species (SD rat, beagle dog, cynomolgus monkey, and human) were diluted into 20× working solutions using 100 mM potassium phosphate buffer. The final concentration of the liver microsomes in the reaction system was 0.5 mg/mL. • (5) Reduced nicotinamide adenine dinucleotide phosphate (NADPH) regeneration system preparation: Appropriate amounts of nicotinamide adenine dinucleotide phosphate (NADP), glucose-6-phosphate (G6P), magnesium chloride (MgCl2), and glucose-6-phosphate dehydrogenase (G6PDH) were weighed to prepare stock solutions at concentrations of 65.33 mM, 330 mM, 300 mM, and 250 Units/mL, respectively. The four stock solutions described above were each added to an appropriate amount of buffer, and the mixture was mixed well by gently inverting up and down. The final concentrations of NADP, G6P, MgCl2, and G6PDH in the NADPH regeneration system were 2.65 mM, 10.2 mM, 6.12 mM, and 2.45 Units/mL, respectively. • (6) Incubation process: The incubation was completed in 96-well plates. Several incubation plates were prepared and named T0, T5, T10, T20, T40, T60, and NCF60, respectively. The first 6 plates corresponded to reaction time points of 0 min, 5 min, 10 min, 20 min, 40 min, and 60 min, respectively. The NCF60 plate was incubated for 60 min with potassium phosphate buffer replacing the NADPH regeneration system solution. Samples under all conditions were prepared in triplicate.
2 µL of the test compound or control compound and 100 µL of microsome working solution (containing 1 mg/mL liver microsome protein) were added to each of the T0, T5, T10, T20, T40, T60, and NCF60 plates, and only the microsome working solution was added to the Blank 60 plate. The plates described above were then pre-incubated in a 37 °C water bath for about 10 min.
After the pre-incubation was completed, 98 µL of the NADPH regeneration system working solution was added to each sample well except for the NCF60 plate and the T0 plate to initiate the reaction, and 98 µL of potassium phosphate buffer was added to each well of the NCF60 plate. Therefore, for the sample wells containing the test sample or control substance working solution, the final concentrations of TC and testosterone in the reaction were 1 µM and 4 µM, respectively, the concentration of liver microsomes was 0.5 mg/mL, and the final concentrations of DMSO and acetonitrile in the reaction system were 0.01% (v/v) and 0.99% (v/v), respectively.
After incubation for an appropriate time (e.g., 5 min, 10 min, 20 min, 40 min, and 60 min), 600 µL of a termination solution (an acetonitrile solution containing 100 ng/mL […]) was added to each test compound sample well and control compound sample well to terminate the reaction. […]

[2] = target: T1, Lp-PLA2 (Homo sapiens, UniProt Q13093); assay: Inhibitory activity against Lp-PLA2 in human plasma (Thio-PAF assay); assay type: biochemical; settings: 2-thio-PAF substrate, 30 min pre-incubation
T1 construct: from tissue; host or cells: pooled (mixed) human plasma
T1 sequence (Q13093 22-441): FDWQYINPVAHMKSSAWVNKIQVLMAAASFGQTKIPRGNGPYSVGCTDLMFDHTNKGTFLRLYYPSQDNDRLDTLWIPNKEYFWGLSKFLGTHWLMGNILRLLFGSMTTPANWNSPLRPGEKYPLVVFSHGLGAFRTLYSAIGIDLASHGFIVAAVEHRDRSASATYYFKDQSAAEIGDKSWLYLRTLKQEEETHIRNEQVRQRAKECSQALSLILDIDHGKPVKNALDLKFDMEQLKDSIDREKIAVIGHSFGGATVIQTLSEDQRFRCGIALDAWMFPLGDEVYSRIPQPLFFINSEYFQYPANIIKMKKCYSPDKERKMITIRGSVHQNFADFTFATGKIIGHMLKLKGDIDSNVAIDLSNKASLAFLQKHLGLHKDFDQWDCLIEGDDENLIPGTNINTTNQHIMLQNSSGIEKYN
Excerpt: The literature reports that 2-Thio-PAF, commercially available from Cayman Chemical, is a substrate for PAF hydrolase (PAF-AH). After its cleavage by PAF-AH, the free thiol released at the sn-2 position can react with 7-diethylamino-3-(4'-maleimidophenyl)-4-methylcoumarin (CPM), resulting in increased fluorescence. Thus, Lp-PLA2 inhibitors can prevent this cleavage, and no increase in fluorescence is observed. In this experiment, the human plasma assay employed the same thioester analog of PAF as described in the recombinant human Lp-PLA2 assay described above.
• (1) The Thio-PAF assay was performed as a quenched 75 µL assay. A compound source plate was prepared by preparing 1:4 (v/v) serial diluents of the compounds in pure DMSO in a 96-well microplate. • (2) 1 µL of each test compound from the compound source plate was transferred into a 96-well microplate containing 40 µL of pre-thawed mixed human plasma by a Rainin multichannel pipette, and the plasma was thawed at room temperature and centrifuged at 2000 rpm for 10 min. The plate was shaken on a microplate shaker for 2 min for uniform mixing. • (3) After 30 min of pre-incubation at room temperature, 10 µL of a substrate solution was added sequentially to the 96-well microplate described above by a Rainin multichannel pipette. The substrate solution contained 2.5 mM 2-thio-PAF (from an ethanol mother liquor), 32 µM CPM (from a DMSO mother liquor), and 3.2 mM N-ethylmaleimide (freshly prepared in DMSO for each experiment) in assay buffer (pH 7.4) consisting of 50 mM HEPES, 150 mM NaCl, and 1 mM CHAPS. After the addition was completed, the plate was immediately shaken for 2 min, and the reaction time for the substrate was 4 min in total. After the reaction was completed, the reaction was quenched with 25 µL of an aqueous solution of 5% trifluoroacetic acid. The plate was centrifuged at 1000 rpm for 1 min. • (4) The FLINT signal (FLINT380/480) was read using a microplate reader. • (5) IC50 data, curve fitting, and QC analyses were performed using GraphPad Prism 8.0 and Excel.

[3] = 0.5 mg/mL, 1 µM, read-out: CL(liver)
[4] = 0.5 mg/mL, 1 µM, read-out: CLint(liver)
[5] = read-out: Clearance rate classification

Row | SMILES | CLint scaled at 1 µM [1, 3] | CLint scaled at 1 µM [1, 4] | CLint scaled at 1 µM [1, 5] | half-life at 1 µM ([1]; 0.5 mg/mL, 1 µM) | IC50 [2]
1 | O=c1nc(OCc2cc(F)c(Oc3ccnc(C(F)(F)F)c3)c(F)c2)cc2n1C[C@H]1CCCN21 [Comparative Example 1, reference compound] | 6.9 mL/min/kg | 10.3 mL/min/kg | 8.9 to 48.3 mL/min/kg | 2.01 h | 16.4 nM
2 | O=c1nc(OCc2cc(F)c(Oc3ccnc(C(F)(F)F)c3)c(F)c2)cc2n1C[C@H]1CCN21 [Example 34-R] | < 5.06 mL/min/kg | < 6.69 mL/min/kg | ≤ 8.9 mL/min/kg | > 3.11 h | 3.3 nM
